Laboratory results as given in BigSolDB 2.1.

N#CCc1ccccc1[N+](=O)[O-]
Conditions	solubility (mole fraction)
in 1,4-dioxane, 288.15 K	0.216
in 1,4-dioxane, 293.15 K	0.226
in 1,4-dioxane, 298.15 K	0.241
in 1,4-dioxane, 303.15 K	0.257
in 1,4-dioxane, 308.15 K	0.278
in 1,4-dioxane, 313.15 K	0.303
in 1,4-dioxane, 318.15 K	0.334
in 1,4-dioxane, 323.15 K	0.371
in 1,4-dioxane, 328.15 K	0.414
in 1,4-dioxane, 333.15 K	0.469
in 2-butanone, 278.15 K	0.108
in 2-butanone, 283.15 K	0.128
in 2-butanone, 288.15 K	0.151
in 2-butanone, 293.15 K	0.173
in 2-butanone, 298.15 K	0.197
in 2-butanone, 303.15 K	0.235
in 2-butanone, 308.15 K	0.269
in 2-butanone, 313.15 K	0.312
in 2-butanone, 318.15 K	0.357
in 2-butanone, 323.15 K	0.422
in 2-butanone, 328.15 K	0.475
in 2-butanone, 333.15 K	0.543
in acetic acid, 293.15 K	0.0478
in acetic acid, 298.15 K	0.0574
in acetic acid, 303.15 K	0.0694
in acetic acid, 308.15 K	0.0846
in acetic acid, 313.15 K	0.104
in acetic acid, 318.15 K	0.128
in acetic acid, 323.15 K	0.158
in acetic acid, 328.15 K	0.196
in acetic acid, 333.15 K	0.244
in acetone, 278.15 K	0.13
in acetone, 283.15 K	0.147
in acetone, 288.15 K	0.171
in acetone, 293.15 K	0.194
in acetone, 298.15 K	0.227
in acetone, 303.15 K	0.259
in acetone, 308.15 K	0.295
in acetone, 313.15 K	0.342
in acetone, 318.15 K	0.385
in acetone, 323.15 K	0.439
in acetone, 328.15 K	0.506
in acetonitrile, 278.15 K	0.0932
in acetonitrile, 283.15 K	0.107
in acetonitrile, 288.15 K	0.124
in acetonitrile, 293.15 K	0.143
in acetonitrile, 298.15 K	0.168
in acetonitrile, 303.15 K	0.195
in acetonitrile, 308.15 K	0.228
in acetonitrile, 313.15 K	0.264
in acetonitrile, 318.15 K	0.31
in acetonitrile, 323.15 K	0.362
in acetonitrile, 328.15 K	0.424
in acetonitrile, 333.15 K	0.498
in ethanol, 278.15 K	0.00458
in ethanol, 283.15 K	0.00566
in ethanol, 288.15 K	0.00705
in ethanol, 293.15 K	0.00939
in ethanol, 298.15 K	0.0118
in ethanol, 303.15 K	0.0156
in ethanol, 308.15 K	0.0213
in ethanol, 313.15 K	0.0277
in ethanol, 318.15 K	0.0383
in ethanol, 323.15 K	0.0487
in ethanol, 328.15 K	0.0649
in ethanol, 333.15 K	0.0838
in ethyl acetate, 278.15 K	0.13
in ethyl acetate, 283.15 K	0.142
in ethyl acetate, 288.15 K	0.16
in ethyl acetate, 293.15 K	0.177
in ethyl acetate, 298.15 K	0.199
in ethyl acetate, 303.15 K	0.219
in ethyl acetate, 308.15 K	0.246
in ethyl acetate, 313.15 K	0.278
in ethyl acetate, 318.15 K	0.313
in ethyl acetate, 323.15 K	0.357
in ethyl acetate, 328.15 K	0.407
in ethyl acetate, 333.15 K	0.466
in ethylbenzene, 278.15 K	0.0237
in ethylbenzene, 283.15 K	0.0285
in ethylbenzene, 288.15 K	0.0346
in ethylbenzene, 293.15 K	0.0423
in ethylbenzene, 298.15 K	0.052
in ethylbenzene, 303.15 K	0.0644
in ethylbenzene, 308.15 K	0.0803
in ethylbenzene, 313.15 K	0.101
in ethylbenzene, 318.15 K	0.126
in ethylbenzene, 323.15 K	0.16
in ethylbenzene, 328.15 K	0.204
in ethylbenzene, 333.15 K	0.26
in isobutanol, 278.15 K	0.00332
in isobutanol, 283.15 K	0.00416
in isobutanol, 288.15 K	0.00491
in isobutanol, 293.15 K	0.00639
in isobutanol, 298.15 K	0.00803
in isobutanol, 303.15 K	0.0102
in isobutanol, 308.15 K	0.013
in isobutanol, 313.15 K	0.0171
in isobutanol, 318.15 K	0.0228
in isobutanol, 323.15 K	0.0303
in isobutanol, 328.15 K	0.0404
in isobutanol, 333.15 K	0.0546
in isopropanol, 278.15 K	0.00411
in isopropanol, 283.15 K	0.00484
in isopropanol, 288.15 K	0.00579
in isopropanol, 293.15 K	0.00751
in isopropanol, 298.15 K	0.00982
in isopropanol, 303.15 K	0.0132
in isopropanol, 308.15 K	0.0177
in isopropanol, 313.15 K	0.0228
in isopropanol, 318.15 K	0.03
in isopropanol, 323.15 K	0.0384
in isopropanol, 328.15 K	0.0492
in isopropanol, 333.15 K	0.0627
in methanol, 278.15 K	0.00641
in methanol, 283.15 K	0.00842
in methanol, 288.15 K	0.0105
in methanol, 293.15 K	0.0131
in methanol, 298.15 K	0.0174
in methanol, 303.15 K	0.0235
in methanol, 308.15 K	0.0305
in methanol, 313.15 K	0.0395
in methanol, 318.15 K	0.0514
in methanol, 323.15 K	0.0661
in methanol, 328.15 K	0.0842
in methanol, 333.15 K	0.108
in n-butanol, 278.15 K	0.00351
in n-butanol, 283.15 K	0.00437
in n-butanol, 288.15 K	0.00569
in n-butanol, 293.15 K	0.00731
in n-butanol, 298.15 K	0.00969
in n-butanol, 303.15 K	0.0129
in n-butanol, 308.15 K	0.0175
in n-butanol, 313.15 K	0.0223
in n-butanol, 318.15 K	0.0293
in n-butanol, 323.15 K	0.0383
in n-butanol, 328.15 K	0.0491
in n-butanol, 333.15 K	0.0624
in n-propanol, 278.15 K	0.00412
in n-propanol, 283.15 K	0.00553
in n-propanol, 288.15 K	0.00681
in n-propanol, 293.15 K	0.00917
in n-propanol, 298.15 K	0.0115
in n-propanol, 303.15 K	0.0151
in n-propanol, 308.15 K	0.0196
in n-propanol, 313.15 K	0.0254
in n-propanol, 318.15 K	0.0333
in n-propanol, 323.15 K	0.0426
in n-propanol, 328.15 K	0.0544
in n-propanol, 333.15 K	0.0685
in toluene, 278.15 K	0.0293
in toluene, 283.15 K	0.0371
in toluene, 288.15 K	0.0471
in toluene, 293.15 K	0.0613
in toluene, 298.15 K	0.0738
in toluene, 303.15 K	0.0968
in toluene, 308.15 K	0.123
in toluene, 313.15 K	0.153
in toluene, 318.15 K	0.195
in toluene, 323.15 K	0.241
in toluene, 328.15 K	0.303
in toluene, 333.15 K	0.377
in water, 278.15 K	3.75e-05
in water, 283.15 K	4.65e-05
in water, 288.15 K	5.57e-05
in water, 293.15 K	6.69e-05
in water, 298.15 K	8.19e-05
in water, 303.15 K	0.000102
in water, 308.15 K	0.000125
in water, 313.15 K	0.000153
in water, 318.15 K	0.000186
in water, 323.15 K	0.000225
in water, 328.15 K	0.000274
in water, 333.15 K	0.000333
